# Experimental data taken from article PMC5753150 (Beilstein Journal of Organic Chemistry, 2017).
# “Also recorded” adds a separate entry of the source. *1 amine or outer side, *2 acyl side, *3 side chain or, on linkers, in order; H or OH if unused. Where a SMILES comes first, the peptide text is derived from it. [ ]: non-standard residue; d: D form. Leu(5,5,5,5',5',5'-F6) = N[C@@H](CC(C(F)(F)F)C(F)(F)F)C(=O)O; X1 = C[C@@H](CC(F)(F)F)[C@H](N[*:1])C(=O)[*:2]; 2Abz = Nc1ccccc1C(=O)O
# What was measured:
# [1] = target: T1, α-chymotrypsin (EC 3.4.21.1) (Bos taurus, UniProt P00766); test: Protease digestion assay with α-chymotrypsin (FL-RP-HPLC); assay type: in vitro ADME, bovine; settings: for Percentage of substrate remaining after incubation for 24 h: α-chymotrypsin (bovine pancreas), 10 mM phosphate buffer pH 7.4 with DMSO, 30 °C, FL-RP-HPLC peak integration (Abz, λex 320/λem 420 nm), average of three independent measurements; for Gain in proteolytic stability upon fluorination compared to the non-fluorinated (Leu or Ile) analogue / Proteolytic stability compared to control peptide FA after 120 min / Proteolytic stability compared to control peptide FA after 24 h: α-chymotrypsin, 10 mM phosphate buffer pH 7.4, 30 °C, FL-RP-HPLC; for Gain in proteolytic stability upon fluorination compared to the non-fluorinated (Leu or Ile) analogue: after 24 h; for Proteolytic stability compared to control peptide FA after 120 min / Proteolytic stability compared to control peptide FA after 24 h: three independent measurements
# T1 construct: purchased Sigma Aldrich; host or cells: bovine pancreas
# Procedure: (§1) The FA peptide was used as a reference. […] All experiments were performed in triplicate.
# (§2) The used linear gradients are
# (§3) chromatograms where an insufficient baseline separation was observed,
# (§4) (proteinase K)]. The obtained data were analyzed with EZChrom Elite software
# (§5) Method Time [min] Water + 0.1% (v/v) TFA [%] ACN + 0.1% (v/v) TFA [%]
# [2] = target: T2, proteinase K (EC 3.4.21.64) (Parengyodontium album, UniProt P06873); test: Protease digestion assay with proteinase K (FL-RP-HPLC); assay type: in vitro ADME, tritirachium album; settings: for Gain in stability upon fluorination compared to the non-fluorinated analogue, 120 min: after 120 min
# T2 construct: purchased Sigma Aldrich; host or cells: Tritirachium album
# Procedure: as §1, §2, §3, §4, §5
# in vitro = settings: pig, pepsin from porcine stomach mucosa, pH 4
# Procedure: (§6) The course of proteolytic digestion was characterized by an analytical HPLC-assay with fluorescence detection. For quantification of substrate degradation, integration of the corresponding HPLC peak was conducted. Cleavage products were identified by ESI–ToF mass spectrometry (see Supporting Information File 1, Tables S4–S7).
# (§7) All peptides employed in the degradation studies were used as the TFA salts obtained after lyophilization. Stock solutions of α-chymotrypsin (from bovine pancreas, EC 3.4.21.1, ≥40.0 units/mg of protein, Sigma Aldrich, St. Louis, MO, USA), and pepsin (from porcine stomach mucosa, EC 3.4.23.1, ≥250 units/mg of protein, Sigma Aldrich, St. Louis, MO, USA) were prepared at concentrations of 1 mg/mL in phosphate buffer (10 mM, pH 7.4), or in acetate buffer (10 mM, pH 4.0), respectively. For proteinase K (from tritirachium album, EC 3.4.21.64, ≥30 units/mg of protein, Sigma Aldrich, St. Louis, MO, USA) and elastase (from porcine pancreas, EC 3.4.21.36, 6.2 units/mg of protein, Sigma Aldrich, St. Louis, MO, USA) stock solutions were prepared also at concentrations of 1 mg/mL in tris/HCl (50 mM) + CaCl2 (10 mM) buffer (pH 7.5), or in tris/HCl buffer (100 mM, pH 8.4), respectively. Peptides (0.002 mmol) were prepared as stocks in DMSO (100 µL) and incubated with the respective enzyme at 30 °C (for α-chymotrypsin and pepsin) or 37 °C (for proteinase K and elastase) with shaking at 300 rpm in a thermomixer over a period of 24 h. The reaction mixture consisted of DMSO (15 µL), corresponding buffer (25 µL), peptide solution (5 µL) and the corresponding enzyme solution (5 µL). […] Aliquots of 5 µL were taken at fixed time points (0, 15, 30, 60, 90, 120 min as well as 3 h and 24 h) and either quenched with ACN containing 0.1% (v/v) TFA (95 µL), in the case of α-chymotrypsin, proteinase K and elastase, or 2% aqueous ammonia (95 µL), in the case of pepsin. All samples were subjected to analytical HPLC on a LaChrom-ELITE-HPLC-System equipped with a fluorescence detector (VWR International Hitachi, Darmstadt, Germany). A monolithic reversed-phase C8 Chromolith® Performance HPLC column (100 × 4.6 mm, Merck KGaA, Darmstadt, Germany) was used to resolve and quantify the products of digestion. The used system and gradients are described in detail in Supporting Information File 1. Detection based on the Abz label was carried out using a fluorescence detector with λex = 320 nm and λem = 420 nm. In all cases, the peaks corresponding to the starting materials (full-length peptides) or the N-terminal fragments (products) were integrated and used to determine the velocity of the reaction (see Supporting Information File 1). […] Each fragment cleaved from the full-length peptide was identified by ESI–ToF mass analysis on an Agilent 6220 ESI–ToF–MS spectrometer (Agilent Technologies, Santa Clara, CA, USA, see Supporting Information File 1). All experiments were performed in triplicate.
# (§8) 2130) with solvent degasser, an autosampler (L-2200) with a 100 µL sample loop, a diode array flow detector (L-2455), a fluorescence detector (L-2485) and a high pressure gradient mixer. As eluents water and ACN, both containing 0.1% (v/v) TFA were used, and a flow rate of 3 mL/min was applied. The used linear gradients are […]
# (§9) For the non-fluorinated peptides method A was used to follow the digestion process, and for the fluorinated peptides method B was applied. For […]
# (§10) The obtained data were analyzed with EZChrom Elite software
# (§11) (version 3.3.2, Agilent Technologies, Santa Clara, CA, USA).
# pepsin (EC 3.4.23.1) [3] = target: pepsin (EC 3.4.23.1) (Sus scrofa, UniProt P00791); test: in vitro; settings: for Percentage of substrate remaining after incubation for 24 h: pepsin (porcine stomach mucosa), 10 mM acetate buffer pH 4.0 with DMSO, 30 °C, FL-RP-HPLC peak integration (Abz, λex 320/λem 420 nm), average of three independent measurements
# Procedure: as §6, §7, §8, §9, §10, §11
# elastase (EC 3.4.21.36) [4] = target: elastase (EC 3.4.21.36) (Sus scrofa, UniProt P00772); settings: elastase (porcine pancreas), 100 mM Tris/HCl buffer pH 8.4 with DMSO, 37 °C, mean of three independent measurements; for Degradation state after incubation for 120 min: FL-RP-HPLC
# Procedure: as §6, §7, §8, §9, §10, §11
# pepsin (EC 3.4.23.1) [5] = test: pepsin in 10 mM acetate buffer, pH 4.0; settings: porcine stomach mucosa, 30 °C, up to 24 h
# [6] = tested on: elastase (from porcine pancreas, EC 3.4.21.36); test: elastase in 100 mM Tris/HCl buffer, pH 8.4; settings: 37 °C, up to 24 h
# [7] = tested on: α-chymotrypsin (EC 3.4.21.1); test: α-chymotrypsin in 10 mM phosphate buffer, pH 7.4; settings: bovine pancreas, 30 °C, up to 24 h
# [8] = tested on: proteinase K (EC 3.4.21.64); test: proteinase K in 50 mM Tris/HCl buffer, containing 10 mM CaCl2 pH 7.5; settings: tritirachium album, 37 °C, up to 24 h
# elastase (EC 3.4.21.36) [9] = test: elastase in 100 mM Tris/HCl buffer, pH 8.4; settings: porcine pancreas, 37 °C, up to 24 h
# dipeptidyl peptidase = settings: wild-type peptide; cited from earlier work
# Source text: Several laboratories have focused on introducing highly fluorinated analogues of hydrophobic amino acids and have studied the effects on stability of the resulting proteins towards thermal and chemical denaturation. These studies prompted further investigation into the extent to which fluorinated amino acids stabilize peptides and proteins against proteolytic degradation in particular. Meng and Kumar reported that the incorporation of 5,5,5,5’,5’,5’-hexafluoroleucine (HfLeu) into the antimicrobial peptides magainin 2 amide and buforin enhanced their resistance towards proteolyt ...
# [10] = proteinase K, 50 mM Tris/HCl + 10 mM CaCl2 pH 7.5, 37 °C
# [11] = proteinase K, 50 mM Tris/HCl + 10 mM CaCl2 pH 7.5, 37 °C, 120 min, FL-RP-HPLC
# [12] = pepsin, 10 mM acetate buffer pH 4.0, 30 °C, 120 min, FL-RP-HPLC
# T2 sequence (P06873 106-384): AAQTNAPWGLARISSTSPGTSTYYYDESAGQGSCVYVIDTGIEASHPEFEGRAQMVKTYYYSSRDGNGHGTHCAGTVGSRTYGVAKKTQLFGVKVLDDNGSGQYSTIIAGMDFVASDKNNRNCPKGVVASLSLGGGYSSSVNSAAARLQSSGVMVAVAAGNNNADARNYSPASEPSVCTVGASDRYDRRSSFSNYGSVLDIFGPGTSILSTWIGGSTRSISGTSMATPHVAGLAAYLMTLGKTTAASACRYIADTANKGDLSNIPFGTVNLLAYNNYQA
# Chain of elastase (EC 3.4.21.36) (Sus scrofa, UniProt P00772) (P00772 27-266): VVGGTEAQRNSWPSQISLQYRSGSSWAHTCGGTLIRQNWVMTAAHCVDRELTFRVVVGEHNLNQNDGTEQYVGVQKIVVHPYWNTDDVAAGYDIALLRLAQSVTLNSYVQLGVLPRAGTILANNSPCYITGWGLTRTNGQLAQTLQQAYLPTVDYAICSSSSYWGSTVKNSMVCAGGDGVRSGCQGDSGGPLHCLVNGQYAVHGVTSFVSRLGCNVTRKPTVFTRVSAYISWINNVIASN
# Chain of pepsin (EC 3.4.23.1) (Sus scrofa, UniProt P00791) (P00791 60-385): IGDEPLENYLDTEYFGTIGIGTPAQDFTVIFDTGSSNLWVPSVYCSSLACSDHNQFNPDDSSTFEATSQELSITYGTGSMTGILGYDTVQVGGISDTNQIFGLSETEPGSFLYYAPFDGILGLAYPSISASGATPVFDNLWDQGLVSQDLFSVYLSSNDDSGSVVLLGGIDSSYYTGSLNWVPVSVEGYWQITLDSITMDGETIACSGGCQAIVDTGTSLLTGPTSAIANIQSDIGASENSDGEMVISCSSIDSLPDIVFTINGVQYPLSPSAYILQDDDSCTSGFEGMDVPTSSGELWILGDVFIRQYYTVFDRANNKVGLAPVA
molecule,measurement,setting,value
"C[C@H](NC(=O)[C@H](C)NC(=O)[C@H](C)NC(=O)[C@H](Cc1ccccc1)NC(=O)[C@H](CC(C(F)(F)F)C(F)(F)F)NC(=O)[C@H](C)NC(=O)[C@H](CCCCN)NC(=O)c1ccccc1N)C(=O)N[C@@H](C)C(=O)N[C@@H](CCCCN)C(=O)O [P2-HfLeuFA] (H-[2Abz]KA[Leu(5,5,5,5',5',5'-F6)]FAAAAK-OH)",Percentage of substrate remaining after incubation for 24 h,[1],not digested at all
same,Gain in proteolytic stability upon fluorination compared to the non-fluorinated (Leu or Ile) analogue,[1],~100%
same,gain in stability vs non-fluorinated analogue after 24 h,,19%
C[C@H](NC(=O)[C@H](C)NC(=O)[C@H](C)NC(=O)[C@H](Cc1ccccc1)NC(=O)[C@@H](NC(=O)[C@H](C)NC(=O)[C@H](CCCCN)NC(=O)c1ccccc1N)[C@@H](C)CC(F)(F)F)C(=O)N[C@@H](C)C(=O)N[C@@H](CCCCN)C(=O)O [P2-TfIleFA] (H-[2Abz]KA[X1]FAAAAK-OH),Percentage of substrate remaining after incubation for 24 h,[1],not digested at all
same,Gain in proteolytic stability upon fluorination compared to the non-fluorinated (Leu or Ile) analogue,[1],50%
same,gain in stability vs non-fluorinated analogue after 24 h,,35%
same,Percentage of substrate remaining after incubation for 24 h,"[2]; proteinase K (tritirachium album), 50 mM Tris/HCl buffer containing 10 mM CaCl2 pH 7.5 with DMSO, 37 °C, 24 h, FL-RP-HPLC peak integration (Abz fluorescence), mean of three independent measurements",still left; also recorded: remarkably stable
same,"Gain in stability upon fluorination compared to the non-fluorinated analogue, 120 min",[2]; [10],60%
same,"remaining at 24 h, 2 mM",in vitro,100%
same,"Gain in proteolytic stability upon fluorination compared to the non-fluorinated analogue, 24 h","pepsin (EC 3.4.23.1) [3]; pepsin, 10 mM acetate buffer pH 4.0, 30 °C, after 24 h",100%
"C[C@H](NC(=O)[C@H](C)NC(=O)[C@H](CC(C(F)(F)F)C(F)(F)F)NC(=O)[C@H](C)NC(=O)[C@H](Cc1ccccc1)NC(=O)[C@H](C)NC(=O)[C@H](C)NC(=O)[C@H](CCCCN)NC(=O)c1ccccc1N)C(=O)N[C@@H](CCCCN)C(=O)O [P2’-HfLeuFA] (H-[2Abz]KAAFA[Leu(5,5,5,5',5',5'-F6)]AAK-OH)",Percentage of substrate remaining after incubation for 24 h,[1],up to 44%
same,Proteolytic stability compared to control peptide FA after 120 min,[1],more stable against digestion
same,Degradation state after incubation for 120 min,[2]; [11],almost completely degraded
same,"remaining at 24 h, 2 mM",in vitro,~76%
same,Peptide digested (hydrolysis) after 120 min,"pepsin (EC 3.4.23.1) [3]; pepsin, 10 mM acetate buffer pH 4.0, 30 °C, 120 min, FL-RP-HPLC, enzyme concentration optimized to about 40% hydrolysis of FA",up to 5%
CC[C@H](C)[C@H](NC(=O)[C@H](C)NC(=O)[C@H](Cc1ccccc1)NC(=O)[C@H](C)NC(=O)[C@H](C)NC(=O)[C@H](CCCCN)NC(=O)c1ccccc1N)C(=O)N[C@@H](C)C(=O)N[C@@H](C)C(=O)N[C@@H](CCCCN)C(=O)O [P2’-IleFA] (H-[2Abz]KAAFAIAAK-OH),Proteolytic stability compared to control peptide FA after 120 min,[1],more stable against digestion
same,Proteolytic stability compared to control peptide FA after 24 h,[1],accelerated proteolysis compared to FA
same,Degradation state after incubation for 120 min,elastase (EC 3.4.21.36) [4],somewhat digested
same,Percentage of substrate remaining after incubation for 24 h,"elastase (EC 3.4.21.36) [4]; 24 h, FL-RP-HPLC peak integration (Abz fluorescence)",almost complete proteolysis
same,Proteolytic stability compared to control peptide FA after 120 min,[2]; [11],as stable as FA
same,Percentage of substrate remaining after incubation for 24 h,pepsin (EC 3.4.23.1) [3],completely digested
same,Proteolytic stability compared to control peptide FA after 120 min,pepsin (EC 3.4.23.1) [3]; [12],degraded faster than the control FA
CC(C)C[C@H](NC(=O)[C@H](C)NC(=O)[C@H](Cc1ccccc1)NC(=O)[C@H](C)NC(=O)[C@H](C)NC(=O)[C@H](CCCCN)NC(=O)c1ccccc1N)C(=O)N[C@@H](C)C(=O)N[C@@H](C)C(=O)N[C@@H](CCCCN)C(=O)O [P2’-LeuFA] (H-[2Abz]KAAFALAAK-OH),Proteolytic stability compared to control peptide FA after 120 min,[1],more stable against digestion
same,Proteolytic stability compared to control peptide FA after 24 h,[1],accelerated proteolysis compared to FA
same,Degradation state after incubation for 120 min,elastase (EC 3.4.21.36) [4],somewhat digested
same,Proteolytic stability compared to control peptide FA after 120 min,pepsin (EC 3.4.23.1) [3]; [12],degraded faster than the control FA
Abz-KAAFALeuAAK,cleaved bond,pepsin (EC 3.4.23.1) [5],F-A
same,not cleaved,[6],no fragments with Phe in P1 observed
same,cleaved bond,[7],"F-A, major"
same,cleaved bond,[8],A-F and Leu-A
same,cleaved bond,elastase (EC 3.4.21.36) [9],A-A and A-Leu and A-K
Abz-KAAFATfIleAAK [P2’-TfIleFA],Degradation state after incubation for 120 min,elastase (EC 3.4.21.36) [4],somewhat digested
same,"Gain in stability upon fluorination compared to the non-fluorinated analogue, 120 min",[2]; [10],around 12%
same,Percentage of substrate remaining after incubation for 24 h,pepsin (EC 3.4.23.1) [3],completely digested
same,Proteolytic stability compared to control peptide FA after 120 min,pepsin (EC 3.4.23.1) [3]; [12],degraded faster than the control FA
glucagon-like-peptide-1 [GLP-1],Time of rapid digestion by the serine protease dipeptidyl peptidase,dipeptidyl peptidase,≈ 2 min
